Source: patent US20130059812A1 (priority 2010, published 2013)

Columns and labels:
HBV = test: Antiviral efficacy test in the treatment of chronic hepatitis B patients; assay type: in vivo; conditions: n=20 per group
Experimental: A total of 40 patients were divided into two groups, to one of which 30 mg of clevudine was administered daily for 24 weeks (group treated with clevudine only; n=20). To another group, a combined formulation of 30 mg of clevudine and 10 mg of adefovir dipivoxil was administered daily for 12 weeks, then administration of adefovir dipivoxil was stopped and only 30 mg of clevudine was administered daily for the remaining period (group treated with combined formulation of clevudine+adefovir dipivoxil; n=20).

wild-type HBV = test: microbe, parasite or virus in culture; assay type: cell-based, Hepatitis B virus (HBV); conditions: Huh-7 cells, 4th day of transfection, clevudine 0.9 μM
Experimental: About 20˜24 hours before the transfection, Huh-7 cell lines were maintained on 6-well plates to be 4×10^5 cells/well with 70˜80% confluence and then cultured. 2 hours before the transfection, the culture medium was removed from the stabilized cells and replaced with a serum-free medium containing clevudine, adefovir dipivoxil or a combined preparation of clevudine and adefovir dipivoxil in a predetermined dilution to be 2 mL/well. Using lipofectamine (Invitrogen), the cells were transfected with wild-type HBV DNA to be 2 μg per well. The concentration of antiviral agents was 0.9 μM of clevudine, 6.3 μM of adefovir dipivoxil, 0.9 μM+6.3 μM of clevudine+adefovir dipivoxil or 1.8 μM+6.3 μM of clevudine+adefovir dipivoxil. About 5 hours after the transfection, the culture medium was replaced with that treated with the antiviral agents, and then the medium was replaced every 24 hours.
On the 4th day of the transfection, the cells were washed with cold PBS and then collected. […]
Electrophoresis was carried out with the separated HBV DNA on 1% agarose gel, which was then transferred to a positively charged nylon membrane. […] An antiviral effect of the combined formulation of clevudine and adefovir dipivoxil was determined using phosphor imager compared with single treatment of clevudine or adefovir dipivoxil.

[1] = system: patient-derived rtM204I mutant virus; assay type: cell-based, Hepatitis B virus (HBV); conditions: untreated control group = 100%, Huh-7 cells, 4th day, clevudine 0.9 μM, adefovir dipivoxil 6.3 μM, combination 0.9 μM+6.3 μM
Experimental: About 20˜24 hours before the transfection, Huh-7 cell lines were maintained on 6-well plates to be 4×10^5 cells/well with 70˜80% confluence and then cultured. 2 hours before the transfection, the culture medium was removed from the stabilized cells and replaced with a serum-free medium containing clevudine, adefovir dipivoxil or a combined formulation of clevudine and adefovir dipivoxil in a predetermined dilution to be 2 mL/well. Using lipofectamine (Invitrogen), the cells were transfected with HBV mutant DNA to be 2 μg per well. The concentration of antiviral agents was 0.9 μM of clevudine, 6.3 μM of adefovir dipivoxil, 0.9 μM+6.3 μM of clevudine+adefovir dipivoxil or 1.8 μM+6.3 μM of clevudine+adefovir dipivoxil. About 5 hours after the transfection, the culture medium was replaced with that treated with the antiviral agents, and then the medium was replaced every 24 hours.
On the 4th day of the transfection, the cells were washed with cold PBS and then collected. The collected cells were lysed with cold Hepes lysis buffer (1% NP-40) and then centrifuged. The supernatant was treated with nuclease to remove DNA of the transfected cells. Core protein of capsid form was precipitated with 26% PEG solution. The capsid protein was removed by 0.5% SDS solution and Proteinase K and then HBV DNA in the capsid was separated. […]

## Cc1cn([C@H]2O[C@@H](CO)[C@H](O)[C@H]2F)c(=O)[nH]c1=O [clevudine, 1-(2′-deoxy-2′-fluoro-β-L-arabinofuranosyl)thymine]
HBV; 12 weeks after the administration, 30 mg clevudine daily, or 30 mg clevudine + 10 mg adefovir dipivoxil daily
  number of HBV DNA copy: −2.67 log 10 copies/mL
HBV; 24 weeks after the administration, 30 mg clevudine daily for 24 weeks, or combination for 12 weeks then only 30 mg clevudine daily
  number of HBV DNA copy: −4.15 log 10 copies/mL
wild-type HBV; Hepatitis B virus, concentration of the combination not stated, read-out: inhibition rate of wild-type HBV replication
  inhibition at 0.9 µM: 34.1%
wild-type HBV; untreated control group = 100%, adefovir dipivoxil 6.3 μM, concentration of the combination not stated (0.9 μM+6.3 μM or 1.8 μM+6.3 μM)
  rate of wild-type HBV replication: 65.91%
[1]
  rate of mutant virus replication: 87.43%
